tested on: MCF-7; assay: cells; conditions: Homo sapiens, MCF7, 48 h, read-out: Cell growth (%) MCF-7

Compound	activity at 10 µM [%]
Cc1ccc(OP(=O)(Nc2ccc([Se][Se]c3ccc(NP(=O)(Oc4ccc(C)cc4)Oc4ccc(C)cc4)cc3)cc2)Oc2ccc(C)cc2)cc1 [II.1g]	82.6
N#C[Se]c1ccc(NC(=O)c2ccccc2)cc1 [I.2a]	63.7
N#C[Se]c1ccc(NC(=O)c2ccc(C#N)cc2)cc1 [I.2d]	74.3
O=C(Nc1ccc([Se][Se]c2ccc(NC(=O)c3ccno3)cc2)cc1)c1ccno1 [I.1j]	92.2
O=C(Nc1ccc([Se][Se]c2ccc(NC(=O)c3ccccc3)cc2)cc1)c1ccccc1 [I.1a]	79.7
N#C[Se]c1ccc(NP(=O)(Oc2ccccc2)Oc2ccccc2)cc1 [II.2c]	114

tested on: CCRF-CEM; assay: cells; conditions: Homo sapiens, 48 h, read-out: Cell growth (%) CCRF-CEM

Compound	activity at 10 µM [%]
Cc1ccc(OP(=O)(Nc2ccc([Se][Se]c3ccc(NP(=O)(Oc4ccc(C)cc4)Oc4ccc(C)cc4)cc3)cc2)Oc2ccc(C)cc2)cc1 [II.1g]	111
N#C[Se]c1ccc(NC(=O)c2ccccc2)cc1 [I.2a]	103
N#C[Se]c1ccc(NC(=O)c2ccc(C#N)cc2)cc1 [I.2d]	115
O=C(Nc1ccc([Se][Se]c2ccc(NC(=O)c3ccno3)cc2)cc1)c1ccno1 [I.1j]	112
O=C(Nc1ccc([Se][Se]c2ccc(NC(=O)c3ccccc3)cc2)cc1)c1ccccc1 [I.1a]	103
N#C[Se]c1ccc(NP(=O)(Oc2ccccc2)Oc2ccccc2)cc1 [II.2c]	81.9

tested on: HT-29; assay: cells; conditions: Homo sapiens, HT-29, 48 h, read-out: Cell growth (%) HT-29

Compound	activity at 10 µM [%]
Cc1ccc(OP(=O)(Nc2ccc([Se][Se]c3ccc(NP(=O)(Oc4ccc(C)cc4)Oc4ccc(C)cc4)cc3)cc2)Oc2ccc(C)cc2)cc1 [II.1g]	104
N#C[Se]c1ccc(NC(=O)c2ccccc2)cc1 [I.2a]	71.6
N#C[Se]c1ccc(NC(=O)c2ccc(C#N)cc2)cc1 [I.2d]	105
O=C(Nc1ccc([Se][Se]c2ccc(NC(=O)c3ccno3)cc2)cc1)c1ccno1 [I.1j]	98.9
O=C(Nc1ccc([Se][Se]c2ccc(NC(=O)c3ccccc3)cc2)cc1)c1ccccc1 [I.1a]	82.6
N#C[Se]c1ccc(NP(=O)(Oc2ccccc2)Oc2ccccc2)cc1 [II.2c]	116
